# From US20260022143A1, “Cyclic Peptide Inhibitors of IL-23” (JANSSEN PHARMACEUTICA NV, priority 2022, published 2026)
# Positions of bridges follow the written chain, without caps; N, C: chain ends. Non-standard residues stand in square brackets, D forms with d. Residues, ends and D or L forms follow the SMILES beside them. *: point of attachment. Me3N+(CH2)2O(CH2)2O(CH2)2CO = C[N+](C)(C)CCOCCOCCC(=O)*; X34 = C[N+](C)(C)CCOCCOCCC(=O)N(CC[N+](C)(C)C)CC*; CH2CH2OCH2CH2OCH2CH2NMe3+ = C[N+](C)(C)CCOCCOCC*; NH(CH2CH2O)2CH2CH2NMe3+ = C[N+](C)(C)CCOCCOCCN*; Trp(7-Me) = Cc1cccc2c(C[C@H](N)C(=O)O)c[nH]c12; Hexanoyl(6-NMe3+) = C[N+](C)(C)CCCCCC(=O)*; dLys(Me3) = C[N+](C)(C)CCCC[C@@H](N)C(=O)O; Dab(NMeAc) = CC(=O)N(C)CC[C@H](N)C(=O)O; 2Nal = N[C@@H](Cc1ccc2ccccc2c1)C(=O)O; 3Pal = N[C@@H](Cc1cccnc1)C(=O)O; Lys(Me) = CNCCCC[C@H](N)C(=O)O; X53 = C[N+]1(CCOCCOCC*)CCOCC1; Pen = CC(C)(S)[C@H](N)C(=O)O; X4 = COCCOCCCN(CCCOCCOC)CC*; X86 = C[N+]1(C)CCCC(C*)C1; Thp = NC1(C(=O)O)CCOCC1; Dap = NC[C@H](N)C(=O)O; X3 = C[N+](C)(C)CCCCC*; X72 = C[N+](C)(C)CCCC*; X61 = COCCOCCCNCC*; Sar = CNCC(=O)O
# Assay: Exposed Polar Surface Area (EPSA)
# Format: physicochemical
# Details: SFC on Chirex 3014 column; sample 1 mM DMSO stock; read-out: EPSA
# Procedure, shortened: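 EPSA, in Å^2, is read from SFC retention time through a linear relationship established with eight calibration standards. Separation uses a Chirex 3014 stationary phase, 35 °C, 14 MPa back pressure, and a 5–60% methanol/ammonium formate modifier gradient in CO2.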
row,Structure (SMILES),EPSA [A^2]
1,COCCOCCCNCCOc1ccc(C[C@H](NC(=O)[C@H]2NC(=O)[C@H](CCCCNC(C)=O)NC(=O)[C@H](Cc3c[nH]c4c(C)cccc34)NC(=O)[C@H]([C@@H](C)O)NC(=O)[C@H](CC(N)=O)NC(=O)[C@@H](NC(=O)CCCCC[N+](C)(C)C)C(C)(C)SSC2(C)C)C(=O)N[C@@H](Cc2ccc3ccccc3c2)C(=O)NC2(C(=O)N[C@@H](CNC(C)=O)C(=O)N[C@@H](CC(N)=O)C(=O)N[C@@H](Cc3cccnc3)C(=O)N(C)CC(N)=O)CCOCC2)cc1 [compound 204] ({Hexanoyl(6-NMe3+)}-[Pen]NT[Trp(7-Me)]K(Ac)[Pen]Y(X61)[2Nal][Thp][Dap](Ac)N[3Pal][Sar]-NH2; disulfide 1-6),153
2,COCCOCCCN(CCCOCCOC)CCOc1ccc(C[C@H](NC(=O)[C@H]2NC(=O)[C@H](CCCCNC(C)=O)NC(=O)[C@H](Cc3c[nH]c4c(C)cccc34)NC(=O)[C@H]([C@@H](C)O)NC(=O)[C@H](CC(N)=O)NC(=O)[C@@H](NC(=O)CCCCC[N+](C)(C)C)C(C)(C)SSC2(C)C)C(=O)N[C@@H](Cc2ccc3ccccc3c2)C(=O)NC2(C(=O)N[C@@H](CNC(C)=O)C(=O)N[C@@H](CC(N)=O)C(=O)N[C@@H](Cc3cccnc3)C(=O)N(C)CC(N)=O)CCOCC2)cc1 [compound 205] ({Hexanoyl(6-NMe3+)}-[Pen]NT[Trp(7-Me)]K(Ac)[Pen]Y(X4)[2Nal][Thp][Dap](Ac)N[3Pal][Sar]-NH2; disulfide 1-6),149
3,"CC(=O)N(C)CCCC[C@@H]1NC(=O)[C@H](Cc2c[nH]c3c(C)cccc23)NC(=O)[C@H]([C@@H](C)O)NC(=O)[C@H](CC(=O)N(C)C)NC(=O)[C@@H](NC(=O)CCOCCOCC[N+](C)(C)C)C(C)(C)SSC(C)(C)[C@@H](C(=O)N[C@@H](Cc2ccc(OCCN(CC[N+](C)(C)C)C(=O)CCOCCOCC[N+](C)(C)C)cc2)C(=O)N[C@@H](Cc2ccc3ccccc3c2)C(=O)NC2(C(=O)N[C@@H](CCCCN(C)C(C)=O)C(=O)N[C@@H](CC(N)=O)C(=O)N[C@@H](Cc3cccnc3)C(=O)N(C)CC(=O)N(C)C)CCOCC2)NC1=O [compound 208, cPEG3aCO-Pen(3)-N(N(Me)2)-T-7MeW-K(NMeAc)-Pen(3)-AEF((Ch)cPEG3a)-2Nal-THP-K(NMeAc)-N-3Pya-Sar-CON(Me)2] ({Me3N+(CH2)2O(CH2)2O(CH2)2CO}-[Pen]D(NMe2)T[Trp(7-Me)][Lys(Me)](Ac)[Pen]Y(X34)[2Nal][Thp][Lys(Me)](Ac)N[3Pal][Sar]-NMe2; disulfide 1-6)",141
4,"CC(=O)N(C)CCCC[C@@H]1NC(=O)[C@H](Cc2c[nH]c3c(C)cccc23)NC(=O)[C@H]([C@@H](C)O)NC(=O)[C@H](CC(=O)N(C)C)NC(=O)[C@@H](NC(=O)CCOCCOCC[N+](C)(C)C)C(C)(C)SSC(C)(C)[C@@H](C(=O)N[C@@H](Cc2ccc(OCCOCCOCC[N+](C)(C)C)cc2)C(=O)N[C@@H](Cc2ccc3ccccc3c2)C(=O)NC2(C(=O)N[C@@H](CCN(C)C(C)=O)C(=O)N[C@@H](CC(N)=O)C(=O)N[C@@H](Cc3cccnc3)C(=O)N(C)CC(=O)N(C)C)CCOCC2)NC1=O [compound 209, cPEG3aCO-Pen(3)-N(N(Me)2)-T-7MeW-K(NMeAc)-Pen(3)-APEG3F-2Nal-THP-Dab(NMeAc)-N-3Pya-Sar-CON(Me)2] ({Me3N+(CH2)2O(CH2)2O(CH2)2CO}-[Pen]D(NMe2)T[Trp(7-Me)][Lys(Me)](Ac)[Pen]Y(CH2CH2OCH2CH2OCH2CH2NMe3+)[2Nal][Thp][Dab(NMeAc)]N[3Pal][Sar]-NMe2; disulfide 1-6)",139
5,"CC(=O)N(C)CCCC[C@@H]1NC(=O)[C@H](Cc2c[nH]c3c(C)cccc23)NC(=O)[C@H]([C@@H](C)O)NC(=O)[C@H](CC(=O)N(C)C)NC(=O)[C@@H](NC(=O)CCOCCOCC[N+](C)(C)C)C(C)(C)SSC(C)(C)[C@@H](C(=O)N[C@@H](Cc2ccc(OCC3CCC[N+](C)(C)C3)cc2)C(=O)N[C@@H](Cc2ccc3ccccc3c2)C(=O)NC2(C(=O)N[C@@H](CCCCN(C)C(C)=O)C(=O)N[C@@H](CC(N)=O)C(=O)N[C@@H](Cc3cccnc3)C(=O)N(C)CC(=O)N(C)C)CCOCC2)NC1=O (stereo partly drawn) [compound 215, cPEG3aCO-Pen(3)-N(N(Me)2)-T-7MeW-K(NMeAc)-Pen(3)-DMMMF-2Nal-THP-K(NMeAc)-N-3Pya-Sar-CON(Me)2] ({Me3N+(CH2)2O(CH2)2O(CH2)2CO}-[Pen]D(NMe2)T[Trp(7-Me)][Lys(Me)](Ac)[Pen]Y(X86)[2Nal][Thp][Lys(Me)](Ac)N[3Pal][Sar]-NMe2; disulfide 1-6)",145
6,"CC(=O)N[C@H](CCCC[N+](C)(C)C)C(=O)N[C@@H]1C(=O)N[C@@H](CC(=O)N(C)C)C(=O)N[C@@H]([C@@H](C)O)C(=O)N[C@@H](Cc2c[nH]c3c(C)cccc23)C(=O)N[C@@H](CCCCN(C)C(C)=O)C(=O)N[C@H](C(=O)N[C@@H](Cc2ccc(OCCOCCOCC[N+](C)(C)C)cc2)C(=O)N[C@@H](Cc2ccc3ccccc3c2)C(=O)NC2(C(=O)N[C@@H](CCCCN(C)C(C)=O)C(=O)N[C@@H](CC(N)=O)C(=O)N[C@@H](Cc3cccnc3)C(=O)N(C)CC(=O)N(C)C)CCOCC2)C(C)(C)SSC1(C)C [compound 216, MeCO-k(Me)3-Pen(3)-N(N(Me)2)-T-7MeW-K(NMeAc)-Pen(3)-APEG3F-2Nal-THP-K(NMeAc)-N-3Pya-Sar-CON(Me)2] (Ac-[dLys(Me3)][Pen]D(NMe2)T[Trp(7-Me)][Lys(Me)](Ac)[Pen]Y(CH2CH2OCH2CH2OCH2CH2NMe3+)[2Nal][Thp][Lys(Me)](Ac)N[3Pal][Sar]-NMe2; disulfide 2-7)",141
7,"CC(=O)N[C@@H]1C(=O)N[C@@H](CC(=O)N(C)C)C(=O)N[C@@H]([C@@H](C)O)C(=O)N[C@@H](Cc2c[nH]c3c(C)cccc23)C(=O)N[C@@H](CCCCN(C)C(=O)CCOCCOCC[N+](C)(C)C)C(=O)N[C@H](C(=O)N[C@@H](Cc2ccc(OCCOCCOCC[N+](C)(C)C)cc2)C(=O)N[C@@H](Cc2ccc3ccccc3c2)C(=O)NC2(C(=O)N[C@@H](CCCCN(C)C(C)=O)C(=O)N[C@@H](CC(N)=O)C(=O)N[C@@H](Cc3cccnc3)C(=O)N(C)CC(=O)N(C)C)CCOCC2)C(C)(C)SSC1(C)C [compound 217, MeCO-Pen(3)-N(N(Me)2)-T-7MeW-K(NMePEG3a)-Pen(3)-APEG3F-2Nal-THP-K(NMeAc)-N-3Pya-Sar-CON(Me)2] (Ac-[Pen]D(NMe2)T[Trp(7-Me)][Lys(Me)](Me3N+(CH2)2O(CH2)2O(CH2)2CO)[Pen]Y(CH2CH2OCH2CH2OCH2CH2NMe3+)[2Nal][Thp][Lys(Me)](Ac)N[3Pal][Sar]-NMe2; disulfide 1-6)",138

# Further lines, results first:
row,EPSA [A^2],Structure (SMILES)
1,136,"CC(=O)N[C@@H]1C(=O)N[C@@H](CC(=O)N(C)C)C(=O)N[C@@H]([C@@H](C)O)C(=O)N[C@@H](Cc2c[nH]c3c(C)cccc23)C(=O)N[C@@H](CCCCN(C)C(C)=O)C(=O)N[C@H](C(=O)N[C@@H](Cc2ccc(OCCOCCOCC[N+](C)(C)C)cc2)C(=O)N[C@@H](Cc2ccc3ccccc3c2)C(=O)NC2(C(=O)N[C@@H](CCCCN(C)C(=O)CCOCCOCC[N+](C)(C)C)C(=O)N[C@@H](CC(N)=O)C(=O)N[C@@H](Cc3cccnc3)C(=O)N(C)CC(=O)N(C)C)CCOCC2)C(C)(C)SSC1(C)C [compound 218, MeCO-Pen(3)-N(N(Me)2)-T-7MeW-K(NMeAc)-Pen(3)-APEG3F-2Nal-THP-K(NMePEG3a)-N-3Pya-Sar-CON(Me)2] (Ac-[Pen]D(NMe2)T[Trp(7-Me)][Lys(Me)](Ac)[Pen]Y(CH2CH2OCH2CH2OCH2CH2NMe3+)[2Nal][Thp][Lys(Me)](Me3N+(CH2)2O(CH2)2O(CH2)2CO)N[3Pal][Sar]-NMe2; disulfide 1-6)"
2,139,"CC(=O)N[C@@H]1C(=O)N[C@@H](CC(=O)N(C)C)C(=O)N[C@@H]([C@@H](C)O)C(=O)N[C@@H](Cc2c[nH]c3c(C)cccc23)C(=O)N[C@@H](CCCCN(C)C(C)=O)C(=O)N[C@H](C(=O)N[C@@H](Cc2ccc(OCCCCC[N+](C)(C)C)cc2)C(=O)N[C@@H](Cc2ccc3ccccc3c2)C(=O)NC2(C(=O)N[C@@H](CCCCN(C)C(C)=O)C(=O)N[C@@H](CC(N)=O)C(=O)N[C@@H](Cc3cccnc3)C(=O)N(C)CC(=O)NCCOCCOCC[N+](C)(C)C)CCOCC2)C(C)(C)SSC1(C)C [compound 219, MeCO-Pen(3)-N(N(Me)2)-T-7MeW-K(NMeAc)-Pen(3)-TMAPF-2Nal-THP-K(NMeAc)-N-3Pya-Sar-CO(NHPEG3a)] (Ac-[Pen]D(NMe2)T[Trp(7-Me)][Lys(Me)](Ac)[Pen]Y(X3)[2Nal][Thp][Lys(Me)](Ac)N[3Pal][Sar]-{NH(CH2CH2O)2CH2CH2NMe3+}; disulfide 1-6 (inferred))"
3,141,"CC(=O)N(C)CCCC[C@@H]1NC(=O)[C@H](Cc2c[nH]c3c(C)cccc23)NC(=O)[C@H]([C@@H](C)O)NC(=O)[C@H](CC(=O)N(C)C)NC(=O)[C@@H](NC(=O)CCOCCOCC[N+](C)(C)C)C(C)(C)SSC(C)(C)[C@@H](C(=O)N[C@@H](Cc2ccc(OCCOCCOCC[N+]3(C)CCOCC3)cc2)C(=O)N[C@@H](Cc2ccc3ccccc3c2)C(=O)NC2(C(=O)N[C@@H](CCCCN(C)C(C)=O)C(=O)N[C@@H](CC(N)=O)C(=O)N[C@@H](Cc3cccnc3)C(=O)N(C)CC(=O)N(C)C)CCOCC2)NC1=O [compound 223, cPEG3aCO-Pen(3)-N(N(Me)2)-T-7MeW-K(NMeAc)-Pen(3)-MMPEG3F-2Nal-THP-K(NMeAc)-N-3Pya-Sar-CON(Me)2] ({Me3N+(CH2)2O(CH2)2O(CH2)2CO}-[Pen]D(NMe2)T[Trp(7-Me)][Lys(Me)](Ac)[Pen]Y(X53)[2Nal][Thp][Lys(Me)](Ac)N[3Pal][Sar]-NMe2; disulfide 1-6)"
4,142,"CC(=O)N(C)CCCC[C@@H]1NC(=O)[C@H](Cc2c[nH]c3c(C)cccc23)NC(=O)[C@H]([C@@H](C)O)NC(=O)[C@H](CC(=O)N(C)C)NC(=O)[C@@H](NC(=O)CCOCCOCC[N+](C)(C)C)C(C)(C)SSC(C)(C)[C@@H](C(=O)N[C@@H](Cc2ccc(OCCCC[N+](C)(C)C)cc2)C(=O)N[C@@H](Cc2ccc3ccccc3c2)C(=O)NC2(C(=O)N[C@@H](CCCCN(C)C(C)=O)C(=O)N[C@@H](CC(N)=O)C(=O)N[C@@H](Cc3cccnc3)C(=O)N(C)CC(=O)N(C)C)CCOCC2)NC1=O [compound 226, cPEG3aCO-Pen(3)-N(N(Me)2)-T-7MeW-K(NMeAc)-Pen(3)-TMA4F-2Nal-THP-K(NMeAc)-N-3Pya-Sar-CON(Me)2] ({Me3N+(CH2)2O(CH2)2O(CH2)2CO}-[Pen]D(NMe2)T[Trp(7-Me)][Lys(Me)](Ac)[Pen]Y(X72)[2Nal][Thp][Lys(Me)](Ac)N[3Pal][Sar]-NMe2; disulfide 1-6)"
